Data as given in a melting point compilation (Tetko et al.; mined from patent text by program, amines drawn as free bases though some values may be those of a salt).

Row | melting point [°C] | SMILES
1 | 127 to 128 | Cc1cccc(C(=O)c2nc(-c3ccccn3)no2)c1
2 | 183 to 184 | CNS(=O)(=O)c1ccc(Oc2ccc(NC(C)=O)cc2)cc1
3 | 121 to 126 | O=C(Nc1ccccc1O)C(F)(F)C(O)(Cn1cncn1)c1ccc(F)cc1F (stereo not given)
4 | 204 to 207 | COc1ccc(C(C)=NNc2ccc(C3=NNC(=O)CC3)cc2)cc1
5 | 204 to 207 | Cc1cc2c(-c3ccccc3)c(CCO)n(C)c(=O)c2cc1C
6 | 230 | Cc1c(C(=O)NC2(C(=O)O)Cc3cccc(Br)c3C2)oc2cc(-c3ccc(Cl)cc3)ccc12 (stereo not given)
7 | 174 to 175 | CC(=O)c1cc2c(cn1)[nH]c1ccccc12
8 | 151 to 152 | COC(=O)CCn1c(=O)n(CCN2CCN(c3ccc(OC)cc3)CC2)c(=O)c2cscc21
9 | 195 to 200 | COC(=O)C(NS(=O)(=O)c1ccc(-c2ccc(NC(=O)c3cc4ccccc4o3)cc2)cc1)C(C)C (stereo not given)
10 | 59 to 62 | COc1ccc(CCc2ccccn2)cc1OCCCCCc1ccccc1
11 | 122 to 123 | CCOC(=O)CC1CCc2[nH]c3ccccc3c2C1 (stereo not given)
12 | 354 | Brc1ccc(C23CC4(c5ccc(Br)cc5)CC(c5ccc(Br)cc5)(C2)CC(c2ccc(Br)cc2)(C3)C4)cc1
13 | 140 | O=C(Nc1cccc(Cc2ccccc2)c1)c1ccn2c1CSC2c1cccnc1 (stereo not given)
14 | 244 | COc1ccc(S(=O)(=O)N(CC(N)=O)c2c(CCc3ccccc3)cccc2OC)cc1OC
15 | 156 to 157 | CSc1c(CC(=O)O)ccc2c3ccccc3n(Cc3ccc(F)cc3)c12
16 | 193 to 197 | COC(=O)C(=CC(=CN(C)C)c1ccc(Cl)cc1[N+](=O)[O-])[N+](=O)[O-]
17 | 163 to 164 | COc1ccc(CSc2cccc(C(=O)Nc3ccc(C#N)cn3)c2)cc1
18 | 76 to 77 | CN(C)CCOC(=O)C(=O)c1ccc(OCCOc2ccc3ccccc3c2)s1
19 | 156 to 158 | CSc1cnn2c(Nc3ccc(F)c(Cl)c3)cc(Cl)nc12
20 | 290 to 293 | NC(=O)c1ccc(-c2n[nH]c3c2Cc2ccccc2-3)cc1
21 | 220 to 221 | CCc1nc(C)cn1-c1ccc2nc(NC(=O)c3ccc(C(C)(C)C)cc3)cn2n1

Second part, the compound before the results:

Row | SMILES | melting point [°C]
22 | OCCSc1ccc(O)cc1 | 70
23 | CN(C=C(C#N)C#N)c1ccc(O)cc1 | 187 to 189
24 | CN1CCN(C)C1=Nc1ccccc1N1CCOCC1 | 133 to 134
25 | Nc1nc(-c2cc(Cl)ccc2Cl)nc(N2CCOCC2)n1 | 189 to 191
26 | O=C1CCC(c2ccccc2)(N2CCCCC2)CC1 | 116 to 117
27 | Cn1c([N+](=O)[O-])cnc1-c1nc2ccccc2[nH]1 | 257
28 | COc1nc2cc([N+](=O)[O-])c(C)c(C(=O)NCC(=O)OC(C)(C)C)c2nc1OC | 125 to 126
29 | CC(C)Cn1nc(-c2ccc(F)cc2F)cc(COS(C)(=O)=O)c1=O | 86.7 to 88.6
30 | CC(C)/C=c1\[nH]c(=O)/c(=C/c2c[nH]c3ccccc23)[nH]c1=O | > 300
31 | COc1ccc2c(c1)CCC1C2C(O)CC2(C)C1CC1OCCOC12 (stereo not given) | 125 to 126
32 | CCNC(=O)CNC(=S)c1cccnc1 | 136 to 138
33 | CCOC(=O)C(C)(C#N)Cc1cc([N+](=O)[O-])ccc1Cl (stereo not given) | 72 to 74
34 | CC1([N+](=O)[O-])C(c2ccco2)CC(=C(C#N)C#N)CC1c1ccco1 (stereo not given) | 192
35 | O=C1Nc2cc(-n3nnn(CCCF)c3=O)c(F)cc2CC1Cl (stereo not given) | 114 to 118
36 | COc1cc2c(cc1OC)-c1cc(OC)c(OC)c3c1C(C2)CN(C)C3 (stereo not given) | 170 to 177
37 | CSc1sc(-c2nnc(C)o2)c2c1C(=O)CC(C)(C)C2 | 186 to 188
38 | COc1cccc(N2CCC(NC(C)=O)CC2)n1 | 125 to 127
39 | O=C1C(N2CCOCC2)=CCCN1c1ccc(I)cc1 | 138 to 148
40 | CN(C(=O)c1ccc2nonc2c1)C1CCOCC1 | 160 to 162
